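48-hour exposure; five concentrations; linearly interpolated endpoints. GI50 = concentration required for 50% inhibition of growth.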 The source made the active and inactive calls. Rule as the data show it: active = GI50 up to about 1.1 µM and inactive = higher.
Tests used:
Assay in all cases: NCI tumour cell line growth inhibition, 48 h
RPMI-8226 = system: RPMI-8226
OVCAR-3 = system: OVCAR-3
ACHN = system: ACHN
RXF 393 = system: RXF 393
UO-31 = system: UO-31
UACC-257 = system: UACC-257
SN12C = system: SN12C
SF-295 = system: SF-295
NCI-H522 = system: NCI-H522
A549 = system: A549
SK-MEL-28 = system: SK-MEL-28
CAKI-1 = system: CAKI-1
Malme-3M = system: Malme-3M
SNB-19 = system: SNB-19
HT-29 = system: HT-29
UACC-62 = system: UACC-62
SK-MEL-5 = system: SK-MEL-5
TK-10 = system: TK-10
OVCAR-5 = system: OVCAR-5
SNB-75 = system: SNB-75

Row | SMILES | GI50 (RPMI-8226) | GI50 (OVCAR-3) | GI50 (ACHN) | GI50 (RXF 393) | GI50 (UO-31) | GI50 (UACC-257) | GI50 (SN12C) | GI50 (SF-295) | GI50 (NCI-H522) | GI50 (A549) | GI50 (SK-MEL-28) | GI50 (CAKI-1) | GI50 (Malme-3M) | GI50 (SNB-19) | GI50 (HT-29) | GI50 (UACC-62) | GI50 (SK-MEL-5) | GI50 (TK-10) | GI50 (OVCAR-5) | GI50 (SNB-75)
1 | C=CC(C)C1(CCCOCc2ccccc2)C(=S)N2CCC3(CC24CCCC14)OCCO3 (stereo not given) | 2.72 µM (inactive) | 6.76 µM (inactive) | 9.84 µM (inactive) | 6.46 µM (inactive) | 28.8 µM (inactive) | 9.68 µM (inactive) | 91.6 µM (inactive) | 53.2 µM (inactive) | 7.31 µM (inactive) | 16 µM (inactive) | 14.3 µM (inactive) | > 100 µM (inactive) | 47.5 µM (inactive) | 24.5 µM (inactive) | 21.9 µM (inactive) | > 100 µM (inactive) | 5.61 µM (inactive) | 97.3 µM (inactive) | > 100 µM (inactive) | 0.0506 µM (active)
2 | CC(C)=CC1(C)/C(=N\O)C(C)(CC(C)C)C(=O)N1O (stereo not given) | > 100 µM (inactive) | > 100 µM (inactive) | > 100 µM (inactive) | > 100 µM (inactive) | > 100 µM (inactive) | > 100 µM (inactive) | > 100 µM (inactive) | > 100 µM (inactive) | > 100 µM (inactive) | > 100 µM (inactive) | > 100 µM (inactive) | > 100 µM (inactive) | > 100 µM (inactive) | > 100 µM (inactive) | > 100 µM (inactive) | > 100 µM (inactive) | > 100 µM (inactive) | > 100 µM (inactive) | > 100 µM (inactive) | > 100 µM (inactive)
3 | COc1ccc(C(=O)/C=C/c2ccc(OCC(=O)N3CCN(c4ccccc4)CC3)cc2)cc1 | > 39.8 µM (inactive) | 74.3 µM (inactive) | 63.1 µM (inactive) | 26.1 µM (inactive) | 44.2 µM (inactive) | > 100 µM (inactive) | > 65.9 µM (inactive) | 32.6 µM (inactive) | 17.7 µM (inactive) | 51.6 µM (inactive) | > 100 µM (inactive) | 77.8 µM (inactive) | > 80.7 µM (inactive) | 27.9 µM (inactive) | > 100 µM (inactive) | 75.2 µM (inactive) | 59.6 µM (inactive) | 44.7 µM (inactive) | > 100 µM (inactive) | 23.7 µM (inactive)
4 | O=C1C[C@H](Sc2ccccc2)C2(OCCO2)[C@@H](Sc2ccccc2)C1 | 0.743 µM (active) | 2.16 µM (inactive) | 1.77 µM (inactive) | 1 µM (active) | 1.23 µM (inactive) | 1.8 µM (inactive) | 2.7 µM (inactive) | 4.33 µM (inactive) | 0.316 µM (active) | 1.87 µM (inactive) | 2.38 µM (inactive) | 3.1 µM (inactive) | 1.81 µM (inactive) | 11 µM (inactive) | 1.64 µM (inactive) | 2.01 µM (inactive) | 1.64 µM (inactive) | 1.95 µM (inactive) | 3.35 µM (inactive) | 11.9 µM (inactive)
5 | COc1ccc(/N=C(\C)c2ccncc2)cc1 | 16.7 µM (inactive) | > 100 µM (inactive) | 34.7 µM (inactive) | > 100 µM (inactive) | 24.2 µM (inactive) | > 100 µM (inactive) | > 100 µM (inactive) | > 100 µM (inactive) | > 100 µM (inactive) | 47.2 µM (inactive) | > 100 µM (inactive) | > 100 µM (inactive) | > 100 µM (inactive) | > 100 µM (inactive) | > 100 µM (inactive) | > 100 µM (inactive) | 94.8 µM (inactive) | > 100 µM (inactive) | 72.8 µM (inactive) | > 100 µM (inactive)
6 | N=c1c2ccccc2nc2oc3ccc(Cl)cc3n12 | 4.4 µM (inactive) | 13.9 µM (inactive) | 11.5 µM (inactive) | 11.9 µM (inactive) | 16.4 µM (inactive) | > 100 µM (inactive) | 9.46 µM (inactive) | 12.8 µM (inactive) | 17.3 µM (inactive) | 12.9 µM (inactive) | 25.2 µM (inactive) | 11.9 µM (inactive) | 10.8 µM (inactive) | 8.22 µM (inactive) | 20.3 µM (inactive) | 37.7 µM (inactive) | 37.8 µM (inactive) | 20 µM (inactive) | 19.8 µM (inactive) | 2.75 µM (inactive)
7 | O=C1c2ccccc2C(=O)N1/N=C1/SC(=N\c2ccccc2)/C(=N/c2ccccc2)N1c1ccccc1 | > 21.1 µM (inactive) | > 100 µM (inactive) | > 66.4 µM (inactive) | 4.47 µM (inactive) | 25.7 µM (inactive) | > 100 µM (inactive) | > 39.3 µM (inactive) | 26.4 µM (inactive) | 97.7 µM (inactive) | > 21 µM (inactive) | > 35.1 µM (inactive) | > 100 µM (inactive) | > 47.3 µM (inactive) | > 90.4 µM (inactive) | > 50 µM (inactive) | > 95.5 µM (inactive) | > 39 µM (inactive) | > 58.5 µM (inactive) | > 100 µM (inactive) | 19.9 µM (inactive)
8 | Fc1ccc2c(c1)SC1=Nc3sc4cc(F)ccc4[n+]3CN12 | 0.437 µM (active) | 14.3 µM (inactive) | 20.6 µM (inactive) | 26.5 µM (inactive) | 19.1 µM (inactive) | 18.9 µM (inactive) | 17.3 µM (inactive) | 32.1 µM (inactive) | 12.1 µM (inactive) | 12.4 µM (inactive) | 39.6 µM (inactive) | 14.9 µM (inactive) | 18.7 µM (inactive) | 16.4 µM (inactive) | 28.8 µM (inactive) | 11.1 µM (inactive) | 11.1 µM (inactive) | 18.8 µM (inactive) | 25.7 µM (inactive) | 15.9 µM (inactive)
9 | O=C(N/N=C/c1ccccc1)c1c(F)c(F)c(F)c(F)c1F | > 100 µM (inactive) | > 100 µM (inactive) | > 100 µM (inactive) | > 100 µM (inactive) | > 100 µM (inactive) | > 100 µM (inactive) | > 100 µM (inactive) | > 100 µM (inactive) | 23.3 µM (inactive) | > 100 µM (inactive) | > 100 µM (inactive) | > 100 µM (inactive) | > 100 µM (inactive) | > 100 µM (inactive) | 54.2 µM (inactive) | 33.3 µM (inactive) | > 100 µM (inactive) | > 100 µM (inactive) | > 100 µM (inactive) | > 100 µM (inactive)

Source: ChEMBL document CHEMBL1201862, “PubChem BioAssay data set” (2004)
